We go through three molecules from BindingDB's records for doi:10.1021/jm00107a034 (Sterling Research Group, 1991).

The nature of experiment [1]: Concentration required to inhibit 50% activity of prostaglandin synthetase was determined in mouse vas deferens.
Experiment [2] can be described thus: Concentration required to inhibit 50% activity of prostaglandin synthetase was determined in vitro in mouse brain microsomes.

For orientation: IC50 means the point on the concentration scale where inhibition reaches its midpoint. As to `Cc1c(C(=O)c2cccc3ccccc23)c2ccccc2n1CCN1CCOC(O)C1` (centres undefined), the 50% inhibitory concentration (IC50) in experiment [1] was 0.57 µM.
Consider `COc1ccc(C(=O)c2cn(CCN3CCOCC3)c3ccccc23)cc1`, for which the IC50 in experiment [2] was over 30 µM; in experiment [1], 5 µM.
In experiment [1], `COc1ccc(C(=O)c2c(C)n(CCN3CCOCC3)c3ccccc23)cc1` [(s-cis) -(4-Methoxy-phenyl)-[2-methyl-1-(2-morpholin-4-yl-ethyl)-1H-indol-3-yl]-methanone] displayed an IC50 of over 30 µM.
